# Measurements published in ChEMBL document CHEMBL3727346, “6-(pyridinyl)-4-pyrimidone derivates as tau protein kinase 1 inhibitors” (2011).
# Active and inactive are the calls of the source. No rule for the calls is given here.
# Experiments:
# [1] = target: Glycogen synthase kinase-3 beta splice variant X1 (Bos taurus, UniProt A0A059UE90); assay: (§1) Inhibition of bovine cerebral TPK1 assessed as reduction in P-GS1 phosphorylation using [32gammaP]ATP incubated for 2 hrs by liquid scintillation counting method
# [2] = target: Glycogen synthase kinase-3 beta splice variant X1 (Bos taurus) (UniProt A0A059UE90); assay: as §1
IC50 [1],inhibition [2],SMILES
3.9 nM,–,CN(c1ccc([C@H]2CN(c3nc(-c4ccncc4F)cc(=O)n3C)CCO2)cc1)[C@@H]1CCOC1
1.2 nM,–,COC(=O)Nc1ccc([C@H]2CN(c3nc(-c4ccncc4F)cc(=O)n3C)CCO2)cc1
2.9 nM,–,Cn1c(N2CCO[C@@H](c3ccc(N)cc3)C2)nc(-c2ccncc2F)cc1=O
4.1 nM,–,CC(=O)Nc1cccc([C@H]2CN(c3nc(-c4ccncc4F)cc(=O)n3C)CCO2)c1
1.2 nM,–,CC(C)Oc1ccc(-c2ccc([C@H]3CN(c4nc(-c5ccncc5F)cc(=O)n4C)CCN3)cc2)cc1
0.51 nM,–,Cc1cc(C2CN(c3nc(-c4ccncc4F)cc(=O)n3C)CCO2)ccc1Br (stereo unspecified)
1.7 nM,–,Cn1c(N2CCO[C@@H](c3ccc(N4CCC(N5CCCC5)CC4)cc3)C2)nc(-c2ccncc2F)cc1=O
0.48 nM,–,COc1ccc(NC(C)=O)cc1[C@H]1CN(c2nc(-c3ccncc3F)cc(=O)n2C)CCO1
7.4 nM,–,Cn1c(N2CCO[C@@H](c3ccc(C(=O)N4CCOCC4)cc3)C2)nc(-c2ccncc2F)cc1=O
4.8 nM,–,Cn1c(N2CCN[C@@H](c3ccc(-c4ncon4)cc3)C2)nc(-c2ccncc2F)cc1=O
1.4 nM,–,Cn1c(N2CCO[C@@H](c3c(F)cccc3Cl)C2)nc(-c2ccncc2F)cc1=O
1.2 nM,–,Cn1c(N2CCOC(c3ccc4c(c3)CCC(=O)N4)C2)nc(-c2ccncc2F)cc1=O (racemic)
6.4 nM,–,CC(=O)N1CCC(Oc2ccc([C@H]3CN(c4nc(-c5ccncc5F)cc(=O)n4C)CCO3)cc2)CC1
1.1 nM,–,Cn1c(N2CCO[C@@H](c3ccc(OCCN4CCOCC4)cc3)C2)nc(-c2ccncc2F)cc1=O
5.4 nM,–,CN(c1ccc([C@H]2CN(c3nc(-c4ccncc4F)cc(=O)n3C)CCO2)cc1)c1ccccn1
2.7 nM,–,Cn1c(N2CCO[C@@H](c3ccc(N[C@@H]4CCOC4)cc3)C2)nc(-c2ccncc2F)cc1=O

IC50 [1],inhibition [2],SMILES
2.9 nM,–,Cc1nc(-c2ccc([C@H]3CN(c4nc(-c5ccncc5F)cc(=O)n4C)CCN3)cc2)no1
3.7 nM,–,Cn1c(N2CCN[C@@H](c3ccc(N4CCCCC4)cc3)C2)nc(-c2ccncc2F)cc1=O
4.2 nM,–,Cn1c(N2CCO[C@@H](c3ccc(NC(=O)C(C)(C)C)cc3)C2)nc(-c2ccncc2F)cc1=O
0.73 nM,–,COc1ccc(-c2ccc([C@H]3CN(c4nc(-c5ccncc5F)cc(=O)n4C)CCN3)cc2)cc1
0.27 nM,–,CN(C)CC(=O)Nc1ccc([C@H]2CN(c3nc(-c4ccncc4F)cc(=O)n3C)CCO2)cc1
7.9 nM,–,Cn1c(N2CCO[C@@H](c3cc4ccccc4o3)C2)nc(-c2ccncc2F)cc1=O
2.2 nM,–,Cn1c(N2CCO[C@@H](c3ccc(NC(=O)C4CCCCC4)cc3)C2)nc(-c2ccncc2F)cc1=O
11 nM,–,CN(C)C(=O)Nc1ccc([C@H]2CN(c3nc(-c4ccncc4F)cc(=O)n3C)CCO2)cc1
–,Active,CSc1ccc([C@H]2CN(c3nc(-c4ccncc4F)cc(=O)n3C)CCO2)cc1
–,Active,Cn1c(N2CCO[C@@H](c3ccc(OC[C@@H](O)CN4CCCC4)cc3)C2)nc(-c2ccncc2F)cc1=O
–,Active,Cn1c(N2CCN[C@@H](c3ccc(-c4ccc(N)cc4)cc3)C2)nc(-c2ccncc2F)cc1=O
–,Active,CC(C)c1ccc([C@H]2CN(c3nc(-c4ccncc4F)cc(=O)n3C)CCO2)cc1
0.53 nM,–,Cn1c(N2CCN[C@@H](c3ccc(N4CCN(c5ccccc5)CC4)cc3)C2)nc(-c2ccncc2F)cc1=O
–,Active,Cc1nnc(-c2ccc([C@H]3CN(c4nc(-c5ccncc5F)cc(=O)n4C)CCO3)cc2)o1
–,Active,Cn1c(N2CCO[C@@H](c3ccc(OCCN4CCCCC4)cc3)C2)nc(-c2ccncc2F)cc1=O
